The values below come from article PMC5716070 (International Journal of Neuropsychopharmacology, 2017).

SMILES strings stand for the structures. Converted amounts (≈) assume the structure as drawn. “And” between values parts separate entries of the source, which are not always exact repeats. Identical values can stand only once. Like-named read-outs stand apart in the source and are kept apart here.

The subject of one data set is SERT. As to conditions: cited from earlier work.
The nature of a further data set: clinical. The conditions noted are these: human, plasma, po, 60 mg.
The subject of the next data set is NET. As to conditions: cited from earlier work.
The mark [1] stands for this setting: clinical dose, ref Nogami et al., 2013.

Regarding `CNCC[C@H](Oc1cccc2ccccc12)c1cccs1` [duloxetine], the SERT occupancy in the data set on SERT (20 mg, ref Takano et al., 2006) was 71.3%; with SERT (60 mg, ref Takano et al., 2006) it was 81.8%; in the data set on SERT (single dose 40 mg, ref Takano et al., 2006), 80.6% and ~80%. In addition, the “EC50 for SERT occupancy” value was 0.00262 ± 0.00093 µg/mL with SERT (ref Abanades et al., 2011) and 0.0037 µg/mL with SERT (ref Takano et al., 2006). For the same molecule, the concentration at 6 h in the data set “clinical” was 80.8 ng/mL.
For the molecule `CCN(CC)C(=O)C1(c2ccccc2)CC1CN` (stereo not shown) [milnacipran], the SERT occupancy entry with SERT (setting [1]) was “low occupancy”. The NET occupancy result with NET (setting [1]) is recorded as “low occupancy”.
Consider `CNCCC=C1c2ccccc2CCc2ccccc21` [nortriptyline], for which the “EC50 (plasma drug concentration inducing 50% NET occupancy)” value is 0.0798 µg/mL (≈ 0.303 µM) in the data set on NET (chronically administered 75–200 mg, patients with MDD, ref Takano et al., 2014) and 0.0598 µg/mL (≈ 0.227 µM) with NET (single low dose (10–75 mg), healthy human volunteers, ref Sekine et al., 2010).
